{"source": "patent US9149038B2", "about": "“4-amino-6-(heterocyclic)picolinates and 6-amino-2-(heterocyclic)pyrimidine-4-carboxylates and their use as herbicides” (Dow AgroSciences LLC, priority 2013, dated 2015)", "key": {"[1]": {"tested_on": "Key Broadleaf Weed and Crop Species", "test": "Post-Emergent Test II: postemergent herbicidal activity, visual rating after 14 d (Table 7)", "assay_type": "in vivo", "details": "post-emergence, 336 h; for pest or weed control at 35 g/ha: 35 g ai/ha; for pest or weed control at 70 g/ha: 70 g ai/ha; for pest or weed control at 140 g/ha: 140 g ai/ha", "procedure,_shortened": "(§1)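 Visual scoring at 14 d, 0 (no injury) to 100 (complete kill), relative to untreated plants. Postemergent overhead track-sprayer application, 187 L/ha, at a top rate plus serial ½×–1/16× rates, to plants grown 7–21 d at about 23–29° C day under a 15 h photoperiod, then subirrigated.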"}, "[2]": {"tested_on": "Key Grass and Sedge Weeds as well as Grass Crops", "test": "Post-Emergent Test II: postemergent herbicidal activity, visual rating after 14 d (Table 8)", "assay_type": "in vivo", "details": "post-emergence, 336 h; for pest or weed control at 35 g/ha: 35 g ai/ha; for pest or weed control at 70 g/ha: 70 g ai/ha; for pest or weed control at 140 g/ha: 140 g ai/ha", "procedure,_shortened": "as §1"}, "[3]": {"details": "ABUTH: velvetleaf (Abutilon theophrasti), read-out: Visual Growth Reduction (%) 14 Days After Application ABUTH"}, "[4]": {"details": "AMARE: redroot pigweed (Amaranthus retroflexus), read-out: Visual Growth Reduction (%) 14 Days After Application AMARE"}, "[5]": {"details": "BRSNN: oilseed rape, canola (Brassica napus), read-out: Visual Growth Reduction (%) 14 Days After Application BRSNN"}, "[6]": {"details": "CHEAL: lambsquarters (Chenopodium album), read-out: Visual Growth Reduction (%) 14 Days After Application CHEAL"}, "[7]": {"details": "EPHHL: wild poinsettia (Euphorbia heterophylla), read-out: Visual Growth Reduction (%) 14 Days After Application EPHHL"}, "[8]": {"details": "HELAN: sunflower (Helianthus annuus), read-out: Visual Growth Reduction (%) 14 Days After Application HELAN"}, "[9]": {"details": "barnyardgrass (Echinochloa crus-galli), read-out: Visual Growth Reduction (%) 14 Days After Application, ECHCG"}, "[10]": {"details": "maize, corn (Zea mays), read-out: Visual Growth Reduction (%) 14 Days After Application, ZEAMX"}, "[11]": {"details": "rice (Oryza sativa), read-out: Visual Growth Reduction (%) 14 Days After Application, ORYSA"}, "[12]": {"details": "wheat, spring (Triticum aestivum), read-out: Visual Growth Reduction (%) 14 Days After Application, TRZAS"}, "[13]": {"details": "yellow nutsedge (Cyperus esculentus), read-out: Visual Growth Reduction (%) 14 Days After Application, CYPES"}}, "note": "Like-named read-outs stand apart in the source and are kept apart here."}
{"smiles": "Nc1c(F)c(-c2ccc3c(c2)OCC3)nc(C(=O)O)c1Cl", "note": "[Compound 101]", "values": [{"measurement": "pest or weed control at 35 g/ha", "setting": "[1]; [3]", "value": "75 to 84", "unit": "%"}, {"measurement": "pest or weed control at 70 g/ha", "setting": "[1]; [3]", "value": "85 to 94", "unit": "%"}, {"measurement": "pest or weed control at 140 g/ha", "setting": "[1]; [3]", "value": "95 to 100", "unit": "%"}, {"measurement": "pest or weed control at 35 g/ha", "setting": "[1]; [4]", "value": "95 to 100", "unit": "%"}, {"measurement": "pest or weed control at 70 g/ha", "setting": "[1]; [4]", "value": "95 to 100", "unit": "%"}, {"measurement": "pest or weed control at 140 g/ha", "setting": "[1]; [4]", "value": "95 to 100", "unit": "%"}, {"measurement": "pest or weed control at 35 g/ha", "setting": "[1]; [5]", "value": "0 to 29", "unit": "%"}, {"measurement": "pest or weed control at 70 g/ha", "setting": "[1]; [5]", "value": "85 to 94", "unit": "%"}, {"measurement": "pest or weed control at 140 g/ha", "setting": "[1]; [5]", "value": "95 to 100", "unit": "%"}, {"measurement": "pest or weed control at 35 g/ha", "setting": "[1]; [6]", "value": "95 to 100", "unit": "%"}, {"measurement": "pest or weed control at 70 g/ha", "setting": "[1]; [6]", "value": "95 to 100", "unit": "%"}, {"measurement": "pest or weed control at 140 g/ha", "setting": "[1]; [6]", "value": "95 to 100", "unit": "%"}, {"measurement": "pest or weed control at 35 g/ha", "setting": "[1]; [7]", "value": "0 to 29", "unit": "%"}, {"measurement": "pest or weed control at 70 g/ha", "setting": "[1]; [7]", "value": "0 to 29", "unit": "%"}, {"measurement": "pest or weed control at 140 g/ha", "setting": "[1]; [7]", "value": "30 to 44", "unit": "%"}, {"measurement": "pest or weed control at 35 g/ha", "setting": "[1]; [8]", "value": "85 to 94", "unit": "%"}, {"measurement": "pest or weed control at 70 g/ha", "setting": "[1]; [8]", "value": "85 to 94", "unit": "%"}, {"measurement": "pest or weed control at 140 g/ha", "setting": "[1]; [8]", "value": "85 to 94", "unit": "%"}, {"measurement": "pest or weed control at 35 g/ha", "setting": "[2]; [9]", "value": "60 to 74", "unit": "%"}, {"measurement": "pest or weed control at 70 g/ha", "setting": "[2]; [9]", "value": "60 to 74", "unit": "%"}, {"measurement": "pest or weed control at 140 g/ha", "setting": "[2]; [9]", "value": "75 to 84", "unit": "%"}, {"measurement": "pest or weed control at 35 g/ha", "setting": "[2]; [10]", "value": "0 to 29", "unit": "%"}, {"measurement": "pest or weed control at 70 g/ha", "setting": "[2]; [10]", "value": "0 to 29", "unit": "%"}, {"measurement": "pest or weed control at 140 g/ha", "setting": "[2]; [10]", "value": "0 to 29", "unit": "%"}, {"measurement": "pest or weed control at 35 g/ha", "setting": "[2]; [11]", "value": "0 to 29", "unit": "%"}, {"measurement": "pest or weed control at 70 g/ha", "setting": "[2]; [11]", "value": "0 to 29", "unit": "%"}, {"measurement": "pest or weed control at 140 g/ha", "setting": "[2]; [11]", "value": "0 to 29", "unit": "%"}, {"measurement": "pest or weed control at 35 g/ha", "setting": "[2]; [12]", "value": "0 to 29", "unit": "%"}, {"measurement": "pest or weed control at 70 g/ha", "setting": "[2]; [12]", "value": "0 to 29", "unit": "%"}, {"measurement": "pest or weed control at 140 g/ha", "setting": "[2]; [12]", "value": "0 to 29", "unit": "%"}, {"measurement": "pest or weed control at 35 g/ha", "setting": "[2]; [13]", "value": "0 to 29", "unit": "%"}, {"measurement": "pest or weed control at 70 g/ha", "setting": "[2]; [13]", "value": "0 to 29", "unit": "%"}, {"measurement": "pest or weed control at 140 g/ha", "setting": "[2]; [13]", "value": "0 to 29", "unit": "%"}]}
